Measurements reported in patent US20250125004A1, “SYSTEMS AND METHODS FOR POST-TRANSLATIONAL MODIFICATION-INSPIRED DRUG DESIGN AND SCREENING” (Ensem Therapeutics, Inc., priority 2021, published 2025).

Tests used:
c-Src (Src-k protein) = c-Src (Src-k protein) (Homo sapiens, UniProt P12931); assay: Protein thermal shift (PTS) assay; format: binding
Procedure: Human c-Src kinase domain (Src-k, including WT and C280S, 254-536) with a TEV protease cleavable N-terminal 6×-His tag was cloned into pET28a vector and co-expressed with full length YopH phosphatase cloned to pCDFDuet-1 vector in Escherichia coli BL21 (DE3) cells. Cells were cultured in LB medium at 37° C. and induced with 0.4 mM IPTG at 18° C. for 16 hours. Proteins were purified using HisTrap FF column (GE Healthcare) in buffer containing 50 mM Hepes pH=8.0, 500 mM NaCl, 5% glycerol and imidazole (25 mM for loading, 150 mM for elution). After TEV enzyme cleavage, proteins were loaded to Hitrap Q FF (GE Healthcare) in buffer containing 20 mM Hepes pH=8.0, 5% glycerol, 1 mM DTT (QA) and eluted with a linear gradient of 10-30% buffer QB (buffer QA plus 1M NaCl). Then proteins were further purified by Superdex75TM 10/300 GL column (GE Healthcare) and change the buffer to 20 mM Hepes pH=7.4, 150 mM NaCl, 1 mM DTT. Protein thermal shift (PTS) assays were performed on a QuantStudioTM 6 Flex Real-time PCR system (Applied Biosystems). […] Src-k protein, 5×SYPRO® orange (Molecular Probes) and different concentrations of compounds were mixed in 20 μL final buffer and added to 96-well plates (DN Biotech). According to the standard protocol, the reaction system was heated from 25° C. to 95° C. within 25 minutes, and the fluorescence signal was monitored in real time. Protein […] ShiftTM Software Version 1.2 (Life Technologies) was used to determine the Tm value and Graphpad Prism 8.0 was used to draw the curves. The Y419-phosphorylated protein used was obtained by incubating Src-k protein with 5 mM MgCl2 and 10 mM ATP overnight, and then desalting it into final buffer.

c-Src [1] = molecular target: T1, c-Src (Homo sapiens, UniProt P12931); assay: Homogeneous time-resolved fluorescence (HTRF) assay, KinEASE-TK kit; format: biochemical; conditions: 120 min incubation, n=3 for DC-Srci-6668, read-out: IC50, inhibition of c-Src catalytic activity
T1 sequence (P12931 86-536): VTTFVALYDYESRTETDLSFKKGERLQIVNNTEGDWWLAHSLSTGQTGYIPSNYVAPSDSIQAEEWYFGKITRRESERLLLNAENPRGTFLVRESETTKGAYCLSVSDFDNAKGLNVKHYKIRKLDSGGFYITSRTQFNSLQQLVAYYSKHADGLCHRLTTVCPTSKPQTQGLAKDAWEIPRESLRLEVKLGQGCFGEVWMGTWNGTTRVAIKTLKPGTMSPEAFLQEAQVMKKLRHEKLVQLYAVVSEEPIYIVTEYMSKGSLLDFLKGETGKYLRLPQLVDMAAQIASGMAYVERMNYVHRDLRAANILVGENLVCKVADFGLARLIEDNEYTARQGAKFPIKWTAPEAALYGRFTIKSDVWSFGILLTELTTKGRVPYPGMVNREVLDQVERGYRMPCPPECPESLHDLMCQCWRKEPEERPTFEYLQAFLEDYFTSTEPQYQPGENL
Procedure: Based on this, covalent docking was performed against an in-house compound library, consisting of 720 compounds with reactive chemical groups. After score ranking and cluster analysis (FIG. 6B), 16 compounds were selected and purchased from ChemDiv (San Diego, CA, USA) for subsequent biochemical evaluations. Although IC50 values are time-dependent for covalent inhibitor and cannot be used to fully characterize the true binding affinity, they are also recognized as an indicator for preliminary evaluating the biological activity of covalent compounds. The homogeneous time resolved fluorescence (HTRF) assay was then conducted to determine the compound inhibitory activity, using the HTRF KinEASE-TK kit (Cisbio, Bedford, MA, USA). […] The cells were infected with baculovirus at 27° C. for 48-72 hours before collection. Cells were lysed in buffer containing 20 mM Hepes pH=7.4, 150 mM NaCl, 1 mM DTT, 1× protease inhibitor cocktail (Roche) and 1 mM PMSF. […] The ability of compounds to inhibit the phosphorylation of a peptide substrate by c-Src kinase was evaluated by homogeneous time-resolved fluorescence (HTRF) using KinEASE-TK kit (Cisbio, Bedford, MA, USA). […] Finally, fluorescence was measured at 615 nm and 665 nm using EnVision reader (PerkinElmer). The results were calculated as follows: ratio=OD665/OD615 and the IC50 values were analyzed in Graphpad Prism 8.0.

[2] = molecular target: c-Src Y419 autophosphorylation (His-tag Src-k protein) (Homo sapiens, UniProt P12931); assay: Amplified Luminescent Proximity Homogeneous Assay (ALPHA), auto-phosphorylation of c-Src Y419; format: biochemical; conditions: 90 min incubation, n=3, read-out: IC50, inhibition of autophosphorylation of c-Src Y419
c-Src Y419 autophosphorylation (His-tag Src-k protein), sequence (P12931 254-536): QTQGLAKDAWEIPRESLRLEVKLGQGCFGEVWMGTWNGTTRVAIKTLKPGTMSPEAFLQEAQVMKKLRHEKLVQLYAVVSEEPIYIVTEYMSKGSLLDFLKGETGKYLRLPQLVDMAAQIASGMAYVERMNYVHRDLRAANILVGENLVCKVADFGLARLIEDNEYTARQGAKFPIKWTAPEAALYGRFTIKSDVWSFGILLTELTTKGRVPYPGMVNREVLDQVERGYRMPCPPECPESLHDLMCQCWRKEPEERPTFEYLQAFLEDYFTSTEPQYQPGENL
Procedure: Human c-Src kinase domain (Src-k, including WT and C280S, 254-536) with a TEV protease cleavable N-terminal 6×-His tag was cloned into pET28a vector and co-expressed with full length YopH phosphatase cloned to pCDFDuet-1 vector in Escherichia coli BL21 (DE3) cells. Cells were cultured in LB medium at 37° C. and induced with 0.4 mM IPTG at 18° C. for 16 hours. Proteins were purified using HisTrap FF column (GE Healthcare) in buffer containing 50 mM Hepes pH=8.0, 500 mM NaCl, 5% glycerol and imidazole (25 mM for loading, 150 mM for elution). After TEV enzyme cleavage, proteins were loaded to Hitrap Q FF (GE Healthcare) in buffer containing 20 mM Hepes pH=8.0, 5% glycerol, 1 mM DTT (QA) and eluted with a linear gradient of 10-30% buffer QB (buffer QA plus 1M NaCl). Then proteins were further purified by Superdex75™ 10/300 GL column (GE Healthcare) and change the buffer to 20 mM Hepes pH=7.4, 150 mM NaCl, 1 mM DTT. The ability of compounds to inhibit the auto-phosphorylation of c-Src Y419 was determined by Amplified Luminescent Proximity Homogeneous Assay (ALPHA). ALPHA assay was carried out in assay buffer containing 20 mM Hepes, pH=7.4, 0.1% Triton X-100, 1 mM DTT, 0.1% bovine serum albumin (w/v)). […] Finally, the signals were measured in ALPHA protocol using EnVision reader and the IC50 values analyzed in Graphpad Prism 8.0.

c-Src [3] = molecular target: T1, c-Src; assay: Intact protein mass by HPLC/MS, covalent binding; conditions: about 20 μM c-Src, 100 μM compound, 4° C., 8 hours; expected 316.34 Da for a single covalent adduct
Procedure: c-Src protein was diluted to approximately 20 μM in final buffer and incubated with compound at a final concentration of 100 μM or same volume of DMSO at 4° C. for 8 hours. Then, the protein samples were diluted into aqueous solution containing 0.1% formic acid (about 1 mg/mL), and 2 μg of the target protein samples were took for LC/MS analysis. Intact protein high-resolution mass spectrometry was performed using Ultimate 3000 LC liquid chromatograph and LTQ Orbitrap mass spectrometer equipped with HESI ion source (Thermo Fisher, CA). BioPharma Finder software (version 2.0, Thermal Fischer, California) was used to process the raw LC-MS data, and the […] deconvolution algorithm was used to obtain the intact protein masses.

c-Src (Src-k protein), sequence (P12931 254-536): as above

positive Tm shift of c-Src (c-Src (Src-k protein); concentration ratio 1:5): 1.50 °C
positive Tm shift of c-Src (c-Src (Src-k protein); concentration ratio 1:10): 2.56 °C
positive Tm shift of c-Src (c-Src (Src-k protein); concentration ratio 1:20): 3.30 °C
IC50 (c-Src [1]): 2.39 ± 0.164 µM
IC50 [2]: 3.88 ± 0.586 µM
increase of MW of c-Src after compound treatment (c-Src [3]): 316.64 Da
Compound: O=C(NC1CCCC1)C(c1ccc(F)cc1)N(C(=O)CCl)C1CC1 (stereo not drawn) [DC-Srci-6668]
